According to ChEMBL document CHEMBL1201862, “PubChem BioAssay data set” (2004):
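Five concentrations, 48 hours, 96-well plates. At the GI50, growth is halved.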 Calls of active or inactive are those of the source. Rule as the data show it: active = GI50 up to about 1.1 µM and inactive = higher.

Key:
Assay in all cases: NCI-60 cell line screen, 48 h
LOX IMVI = test system: LOX IMVI
OVCAR-5 = test system: OVCAR-5
SK-MEL-28 = test system: SK-MEL-28
SF-295 = test system: SF-295
IGROV-1 = test system: IGROV-1
HL-60 = test system: HL-60
UO-31 = test system: UO-31
EKVX = test system: EKVX
SR = test system: SR
KM12 = test system: KM12
HCC 2998 = test system: HCC 2998
SW-620 = test system: SW-620
SF-268 = test system: SF-268
SNB-75 = test system: SNB-75
HT-29 = test system: HT-29
NCI-H522 = test system: NCI-H522
A549 = test system: A549
HOP-92 = test system: HOP-92
HCT-15 = test system: HCT-15

Structure (SMILES) | GI50 (LOX IMVI) | GI50 (OVCAR-5) | GI50 (SK-MEL-28) | GI50 (SF-295) | GI50 (IGROV-1) | GI50 (HL-60) | GI50 (UO-31) | GI50 (EKVX) | GI50 (SR) | GI50 (KM12) | GI50 (HCC 2998) | GI50 (SW-620) | GI50 (SF-268) | GI50 (SNB-75) | GI50 (HT-29) | GI50 (NCI-H522) | GI50 (A549) | GI50 (HOP-92) | GI50 (HCT-15)
N=C(CC(=O)Nc1ccc(Cl)cc1)Nc1ccccc1 | > 100 µM (inactive) | > 100 µM (inactive) | > 100 µM (inactive) | > 100 µM (inactive) | > 100 µM (inactive) | > 100 µM (inactive) | > 100 µM (inactive) | > 100 µM (inactive) | > 100 µM (inactive) | > 100 µM (inactive) | > 100 µM (inactive) | > 100 µM (inactive) | > 100 µM (inactive) | > 100 µM (inactive) | > 100 µM (inactive) | > 100 µM (inactive) | > 100 µM (inactive) | – | –
CSC(C1c2ccccc2N(C)C2=NC(=O)N(C)C(=O)C21Cl)S(=O)(=O)c1ccc(C)cc1 (stereo not given) | 45.8 µM (inactive) | > 100 µM (inactive) | 25 µM (inactive) | 33.6 µM (inactive) | > 100 µM (inactive) | 14.2 µM (inactive) | 79.8 µM (inactive) | 94.4 µM (inactive) | – | 60.5 µM (inactive) | > 100 µM (inactive) | 26.6 µM (inactive) | 29.3 µM (inactive) | 24 µM (inactive) | 34.1 µM (inactive) | 15.7 µM (inactive) | > 100 µM (inactive) | 24.9 µM (inactive) | 40.9 µM
Cc1cc(C)c(C(=O)c2no[n+]([O-])c2C(=O)c2c(C)cc(C)c(Br)c2C)c(C)c1Br | – | 16 µM (inactive) | 14.4 µM (inactive) | 16.9 µM (inactive) | 6.15 µM (inactive) | 3.35 µM (inactive) | 7.67 µM (inactive) | 12 µM (inactive) | 4.27 µM (inactive) | 13.6 µM (inactive) | – | 12.9 µM (inactive) | 11.5 µM (inactive) | 9.31 µM (inactive) | 12.3 µM (inactive) | 10.9 µM (inactive) | 13.8 µM (inactive) | 6.19 µM (inactive) | 13.5 µM
C/C(CC(=O)CCCC(=O)Nc1ccc(Cl)cc1Cl)=N/NC(=O)CC#N | > 100 µM (inactive) | > 100 µM (inactive) | > 100 µM (inactive) | > 100 µM (inactive) | > 100 µM (inactive) | > 100 µM (inactive) | > 100 µM (inactive) | > 100 µM (inactive) | – | > 100 µM (inactive) | > 100 µM (inactive) | > 100 µM (inactive) | > 100 µM (inactive) | > 100 µM (inactive) | > 100 µM (inactive) | – | > 100 µM (inactive) | – | > 100 µM
O=C(O)c1ccc2c(c1)C(=O)N(c1ccc(S(=O)(=O)c3ccc(N4C(=O)c5ccc(C(=O)O)cc5C4=O)cc3)cc1)C2=O | > 100 µM (inactive) | > 100 µM (inactive) | > 100 µM (inactive) | > 100 µM (inactive) | – | > 100 µM (inactive) | > 100 µM (inactive) | > 100 µM (inactive) | > 100 µM (inactive) | > 100 µM (inactive) | – | > 100 µM (inactive) | > 100 µM (inactive) | > 100 µM (inactive) | > 100 µM (inactive) | > 100 µM (inactive) | > 100 µM (inactive) | – | > 100 µM
CCOc1ccccc1NC(=O)CSc1nnc(Cc2ccccc2)o1 | 15.5 µM (inactive) | 66.1 µM (inactive) | 71.4 µM (inactive) | 98.4 µM (inactive) | 47.5 µM (inactive) | 35.7 µM (inactive) | 23.9 µM (inactive) | – | – | 40.3 µM (inactive) | 48.1 µM (inactive) | 16.6 µM (inactive) | 23.9 µM (inactive) | 56.1 µM (inactive) | 35.3 µM (inactive) | 18.2 µM (inactive) | > 100 µM (inactive) | – | 17.3 µM
OC12c3ccccc3C1(N1CCOCC1)CCCCC21OCCCO1 (stereo not given) | > 100 µM (inactive) | > 100 µM (inactive) | > 100 µM (inactive) | > 100 µM (inactive) | > 100 µM (inactive) | > 100 µM (inactive) | – | – | – | > 100 µM (inactive) | – | – | > 100 µM (inactive) | > 100 µM (inactive) | > 100 µM (inactive) | > 100 µM (inactive) | > 100 µM (inactive) | – | > 100 µM
COc1cc(C(=O)C/C(CCC(=O)Nc2ccccc2[N+](=O)[O-])=N\NC(=O)C(N)=O)ccc1O | > 100 µM (inactive) | > 100 µM (inactive) | > 100 µM (inactive) | > 100 µM (inactive) | > 100 µM (inactive) | > 100 µM (inactive) | > 100 µM (inactive) | > 100 µM (inactive) | > 100 µM (inactive) | > 100 µM (inactive) | – | > 100 µM (inactive) | > 100 µM (inactive) | – | > 100 µM (inactive) | – | > 100 µM (inactive) | 65.3 µM (inactive) | > 100 µM
CC1CC#CCOC(=O)CCCC1=O (stereo not given) | > 100 µM (inactive) | – | > 100 µM (inactive) | > 100 µM (inactive) | > 100 µM (inactive) | > 100 µM (inactive) | – | – | – | > 100 µM (inactive) | > 100 µM (inactive) | > 100 µM (inactive) | > 100 µM (inactive) | > 100 µM (inactive) | > 100 µM (inactive) | > 100 µM (inactive) | > 100 µM (inactive) | – | –
C[N+](C)=c1[nH]c2ccccc2[nH]1 | > 100 µM (inactive) | > 100 µM (inactive) | > 100 µM (inactive) | > 100 µM (inactive) | > 100 µM (inactive) | > 100 µM (inactive) | > 100 µM (inactive) | > 100 µM (inactive) | – | > 100 µM (inactive) | > 100 µM (inactive) | > 100 µM (inactive) | > 100 µM (inactive) | 24.3 µM (inactive) | > 100 µM (inactive) | > 100 µM (inactive) | > 100 µM (inactive) | > 100 µM (inactive) | > 100 µM
COP12(OC)NC(=O)OC1(C(F)(F)F)c1ccccc1O2 (stereo not given) | > 100 µM (inactive) | – | > 100 µM (inactive) | > 100 µM (inactive) | > 100 µM (inactive) | > 100 µM (inactive) | – | – | – | > 100 µM (inactive) | – | – | > 100 µM (inactive) | 44.9 µM (inactive) | > 100 µM (inactive) | > 100 µM (inactive) | > 100 µM (inactive) | – | > 100 µM
O=P1(c2ccccc2)CCCCC1 | > 100 µM (inactive) | > 100 µM (inactive) | > 100 µM (inactive) | > 100 µM (inactive) | > 100 µM (inactive) | > 100 µM (inactive) | > 100 µM (inactive) | > 100 µM (inactive) | > 100 µM (inactive) | > 100 µM (inactive) | > 100 µM (inactive) | > 10 µM (inactive) | – | > 100 µM (inactive) | > 100 µM (inactive) | > 10 µM (inactive) | > 100 µM (inactive) | – | > 100 µM
COc1ccc(NC(=O)C2C(=O)N(c3ccc(OC)cc3)C(=O)/C2=N\NC(N)=O)cc1 (stereo not given) | 65.8 µM (inactive) | 97.5 µM (inactive) | 59.7 µM (inactive) | 37.1 µM (inactive) | 19.7 µM (inactive) | – | 27.7 µM (inactive) | 40.6 µM (inactive) | – | 20.3 µM (inactive) | 30.9 µM (inactive) | > 100 µM (inactive) | 20.2 µM (inactive) | 20.6 µM (inactive) | 58.6 µM (inactive) | 45.6 µM (inactive) | – | 31.3 µM (inactive) | > 100 µM
C(=C1\CCC/C(=C/c2ccccc2)C1=NNc1ccccc1)/c1ccccc1 | > 100 µM (inactive) | > 100 µM (inactive) | > 100 µM (inactive) | > 100 µM (inactive) | > 100 µM (inactive) | > 100 µM (inactive) | > 100 µM (inactive) | > 100 µM (inactive) | – | > 100 µM (inactive) | > 100 µM (inactive) | > 100 µM (inactive) | > 100 µM (inactive) | 87.3 µM (inactive) | > 100 µM (inactive) | > 100 µM (inactive) | > 100 µM (inactive) | > 100 µM (inactive) | > 100 µM
COc1cccc(C(=O)C2C(=O)N(C)CCc3ccccc32)c1OC (stereo not given) | > 100 µM (inactive) | – | > 100 µM (inactive) | – | > 100 µM (inactive) | > 100 µM (inactive) | > 100 µM (inactive) | – | – | > 100 µM (inactive) | – | > 100 µM (inactive) | > 10 µM (inactive) | > 100 µM (inactive) | > 100 µM (inactive) | > 100 µM (inactive) | > 100 µM (inactive) | > 100 µM (inactive) | > 100 µM
CS(=O)(=O)NNS(=O)(=O)c1ccc(Br)cc1 | > 100 µM (inactive) | > 100 µM (inactive) | > 100 µM (inactive) | – | > 100 µM (inactive) | > 100 µM (inactive) | > 100 µM (inactive) | > 100 µM (inactive) | – | – | > 100 µM (inactive) | > 100 µM (inactive) | > 100 µM (inactive) | 87.7 µM (inactive) | > 100 µM (inactive) | > 100 µM (inactive) | > 100 µM (inactive) | > 100 µM (inactive) | > 100 µM
Cc1ccc2nc3c(Cl)cc(=O)cc-3sc2c1 | – | > 10 µM (inactive) | 35 µM (inactive) | 25.8 µM (inactive) | 19.4 µM (inactive) | 5.77 µM (inactive) | 34 µM (inactive) | 22.2 µM (inactive) | > 10 µM (inactive) | > 10 µM (inactive) | – | 21.6 µM (inactive) | 23.6 µM (inactive) | 21.5 µM (inactive) | 29.4 µM (inactive) | 16.7 µM (inactive) | 19.5 µM (inactive) | 21.8 µM (inactive) | 17.5 µM
